Test [1] has as its target T1, TCF4-CTNNB1 complex (Homo sapiens, UniProt P35222).
T1 sequence (P35222 whole entry): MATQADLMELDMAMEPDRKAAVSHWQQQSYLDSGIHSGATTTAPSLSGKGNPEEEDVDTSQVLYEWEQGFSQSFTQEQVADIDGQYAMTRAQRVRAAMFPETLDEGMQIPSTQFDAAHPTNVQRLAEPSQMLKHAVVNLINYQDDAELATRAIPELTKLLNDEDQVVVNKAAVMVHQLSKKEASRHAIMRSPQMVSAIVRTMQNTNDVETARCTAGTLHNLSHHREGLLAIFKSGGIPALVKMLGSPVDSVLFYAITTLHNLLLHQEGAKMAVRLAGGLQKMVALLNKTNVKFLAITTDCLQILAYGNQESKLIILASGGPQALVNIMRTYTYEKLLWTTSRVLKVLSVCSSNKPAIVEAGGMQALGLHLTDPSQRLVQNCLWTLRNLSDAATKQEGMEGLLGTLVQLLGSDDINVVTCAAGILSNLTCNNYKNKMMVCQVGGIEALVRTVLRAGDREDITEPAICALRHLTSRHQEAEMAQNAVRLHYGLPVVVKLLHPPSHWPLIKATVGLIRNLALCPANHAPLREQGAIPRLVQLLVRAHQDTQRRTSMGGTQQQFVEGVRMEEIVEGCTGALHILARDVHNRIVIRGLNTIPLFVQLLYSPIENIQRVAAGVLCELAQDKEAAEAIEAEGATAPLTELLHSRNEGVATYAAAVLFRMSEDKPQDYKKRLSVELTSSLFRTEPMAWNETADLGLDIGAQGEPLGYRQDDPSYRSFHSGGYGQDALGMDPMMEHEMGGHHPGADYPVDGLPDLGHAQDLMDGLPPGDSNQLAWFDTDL
T1 sequence (P15884 whole entry): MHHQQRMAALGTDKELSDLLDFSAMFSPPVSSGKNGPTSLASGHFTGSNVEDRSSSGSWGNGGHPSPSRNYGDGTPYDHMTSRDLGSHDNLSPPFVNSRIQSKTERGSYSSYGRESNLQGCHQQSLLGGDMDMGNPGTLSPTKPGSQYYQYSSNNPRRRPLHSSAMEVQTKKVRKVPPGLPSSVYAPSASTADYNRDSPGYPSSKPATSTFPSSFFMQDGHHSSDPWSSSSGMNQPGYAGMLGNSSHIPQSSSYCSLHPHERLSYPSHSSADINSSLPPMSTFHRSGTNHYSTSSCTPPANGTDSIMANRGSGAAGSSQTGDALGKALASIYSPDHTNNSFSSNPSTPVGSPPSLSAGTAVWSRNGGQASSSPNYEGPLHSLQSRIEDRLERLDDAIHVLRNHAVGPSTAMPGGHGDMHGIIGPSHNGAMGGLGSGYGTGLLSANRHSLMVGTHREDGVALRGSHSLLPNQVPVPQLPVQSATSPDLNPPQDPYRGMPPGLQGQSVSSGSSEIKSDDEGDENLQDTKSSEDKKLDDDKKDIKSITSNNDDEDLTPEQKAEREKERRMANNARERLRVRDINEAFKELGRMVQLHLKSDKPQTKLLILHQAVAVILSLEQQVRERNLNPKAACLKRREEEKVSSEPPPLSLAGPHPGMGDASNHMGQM
Nature of the test: Inhibition of FITC-labeled Tcf4 (unknown origin) / full length beta-catenin (1 to 781 residues) (unknown origin) protein-protein interaction measured after 1 hr by fluorescence polarization assay. It counts as protein-complex assay. In general terms: In fluorescence polarisation assays a small probe gives low polarisation when free and higher when bound to something large.

Test [2] concerns the target T2, Protein deacetylase HDAC6 (Homo sapiens, UniProt Q9UBN7).
T2 sequence (Q9UBN7 whole entry): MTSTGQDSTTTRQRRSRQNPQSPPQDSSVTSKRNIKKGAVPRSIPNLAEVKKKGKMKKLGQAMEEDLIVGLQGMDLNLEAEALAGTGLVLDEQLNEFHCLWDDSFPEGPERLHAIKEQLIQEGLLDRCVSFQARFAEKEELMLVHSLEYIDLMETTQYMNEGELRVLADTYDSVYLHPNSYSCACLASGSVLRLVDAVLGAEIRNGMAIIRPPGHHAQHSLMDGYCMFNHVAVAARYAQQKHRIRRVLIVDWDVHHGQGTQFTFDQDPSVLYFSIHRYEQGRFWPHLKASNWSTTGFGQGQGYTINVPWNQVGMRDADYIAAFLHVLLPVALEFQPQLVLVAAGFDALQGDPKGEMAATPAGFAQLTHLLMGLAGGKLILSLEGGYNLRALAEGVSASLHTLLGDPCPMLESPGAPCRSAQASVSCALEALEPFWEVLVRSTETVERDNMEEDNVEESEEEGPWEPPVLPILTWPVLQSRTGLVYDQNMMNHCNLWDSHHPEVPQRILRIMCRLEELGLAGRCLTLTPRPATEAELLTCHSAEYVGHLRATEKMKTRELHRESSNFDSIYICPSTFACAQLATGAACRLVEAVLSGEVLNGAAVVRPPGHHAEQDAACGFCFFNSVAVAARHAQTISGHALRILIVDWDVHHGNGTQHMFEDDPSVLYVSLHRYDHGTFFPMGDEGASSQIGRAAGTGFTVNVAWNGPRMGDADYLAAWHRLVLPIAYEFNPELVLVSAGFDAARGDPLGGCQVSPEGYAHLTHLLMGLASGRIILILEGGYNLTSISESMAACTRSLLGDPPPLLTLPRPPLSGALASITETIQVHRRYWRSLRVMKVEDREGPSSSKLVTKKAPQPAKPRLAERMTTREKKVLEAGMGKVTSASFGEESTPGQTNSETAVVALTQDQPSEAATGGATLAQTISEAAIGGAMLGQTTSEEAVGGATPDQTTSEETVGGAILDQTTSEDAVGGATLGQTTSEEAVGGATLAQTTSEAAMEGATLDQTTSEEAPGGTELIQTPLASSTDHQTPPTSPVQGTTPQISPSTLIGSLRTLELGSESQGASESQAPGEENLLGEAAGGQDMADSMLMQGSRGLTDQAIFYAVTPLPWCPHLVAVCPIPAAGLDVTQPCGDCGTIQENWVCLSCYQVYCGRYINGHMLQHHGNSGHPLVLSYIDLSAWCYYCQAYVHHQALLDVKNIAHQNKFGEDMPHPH
The experiment in a line: Inhibition of HDAC6 (unknown origin).

Test [3] deals with T1, TCF4-CTNNB1 complex. Nature of the test: Binding affinity to FITC-labeled Tcf4 (unknown origin) /6His-tagged beta-catenin (135 to 668 residues) (unknown origin) protein-protein interaction assessed as inhibition constant by fluorescence polarization assay. It counts as protein-complex assay.
The target in test [4] is T3, E3 ubiquitin-protein ligase Mdm2 (Homo sapiens, UniProt Q00987). The experiment in a line: Binding affinity to MDM2 (unknown origin) by surface plasmon resonance analysis. (In general: SPR reads the build-up and loss of mass on a sensor chip optically.)
Test [5] has as its target T3, E3 ubiquitin-protein ligase Mdm2. Nature of the test: Inhibition of MDM2 (unknown origin) by Fluorescence polarization assay.

Starred links: 1 amine or outer side, 2 acyl side, 3 side chain; linkers in the order of their positions; H or OH if unused. Positions of bridges follow the written chain, without caps; N, C: chain ends. Non-standard residues stand in square brackets, D forms with d. Residues, ends and D or L forms follow the SMILES beside them. *: point of attachment. Gly((CH2)5SH) = N[C@@H](CCCCCS)C(=O)O; mXylylene = c1cc(C[*:1])cc(C[*:2])c1; X1 = O=C(CN(CC[*:3])[*:1])[*:2]; Nle = CCCC[C@H](N)C(=O)O; Dap = NC[C@H](N)C(=O)O; BrAc = O=C(CBr)*; βAla = NCCC(=O)O; Mpa = O=C(O)CCS

T3 sequence (Q00987 whole entry): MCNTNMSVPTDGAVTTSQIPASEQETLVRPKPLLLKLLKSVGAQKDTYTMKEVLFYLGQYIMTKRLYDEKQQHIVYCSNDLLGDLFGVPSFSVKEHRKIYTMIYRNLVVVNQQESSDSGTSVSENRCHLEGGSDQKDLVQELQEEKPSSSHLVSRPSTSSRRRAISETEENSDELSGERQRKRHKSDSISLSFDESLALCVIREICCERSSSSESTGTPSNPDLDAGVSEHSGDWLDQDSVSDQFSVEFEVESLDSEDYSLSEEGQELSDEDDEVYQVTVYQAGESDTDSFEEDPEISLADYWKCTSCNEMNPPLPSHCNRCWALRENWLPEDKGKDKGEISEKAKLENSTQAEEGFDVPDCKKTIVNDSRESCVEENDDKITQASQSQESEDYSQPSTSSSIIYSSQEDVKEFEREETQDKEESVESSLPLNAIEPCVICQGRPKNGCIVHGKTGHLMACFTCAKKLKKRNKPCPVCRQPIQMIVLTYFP

A word on the IC50: it is the concentration needed to halve the response being measured. At TCF4-CTNNB1 complex [1], `CC(C)C[C@@H]1NC(=O)[C@@H]2CSCc3cccc(c3)CSC[C@H](NC(=O)[C@H](CC(N)=O)NC(=O)[C@H](CCCNC(=N)N)NC(=O)[C@H]([C@@H](C)O)NC(=O)[C@H](C(C)C)NC(=O)CCNC(=O)CCNC(=O)[C@H](Cc3ccccc3)NC(=O)[C@H](C(C)C)NC(=O)[C@H](CC(C)C)NC1=O)C(=O)N[C@@H](C(C)C)C(=O)N1CCC[C@H]1C(=O)N1CCC[C@H]1C(=O)N[C@@H](CC(=O)O)C(=O)N2` (cyclo(CLLVF[βAla][βAla]VTRNCVPPD); linker 1-12 via mXylylene) yielded an IC50 of 4.8 µM. In test [2], `CCCC[C@@H]1NC(=O)[C@H](Cc2ccccc2)NC(=O)[C@H](CCCCCS)NC(=O)[C@H](CCCNC(=N)N)NC(=O)[C@H](CC(=O)O)NC(=O)[C@H](CO)NC(=O)[C@H](C)NC(=O)[C@H](CCCCN)NC1=O` (cyclo(ASDR[Gly((CH2)5SH)]F[Nle]K)) returned an IC50 of 0.017 µM. Regarding `CC[C@H](C)[C@@H]1NC(=O)[C@H](CNC(=O)CBr)NC(=O)[C@H](CC(=O)O)NC(=O)[C@H](CC(=O)O)NC(=O)CNC(=O)[C@@H]2CCCN2C(=O)[C@H](C)NC(=O)[C@H](CCCNC(=N)N)NC(=O)[C@H]([C@@H](C)O)NC(=O)[C@H](CCC(N)=O)NC(=O)[C@H]([C@@H](C)O)NC(=O)CCSCCN(CC(N)=O)C(=O)[C@H](Cc2ccccc2)NC(=O)[C@H]([C@@H](C)O)NC1=O` ([Mpa]TQTRAPGDD[Dap](BrAc)ITF[X1]-NH2; thioether 1-15), on TCF4-CTNNB1 complex [3], the IC50 worked out at 4 µM. In general, Kd refers to the equilibrium constant for the complex coming apart. Higher therefore signals lower affinity. `CN1CCC(=O)NCCSCCS(=O)(=O)CCN(Cc2ccc(C#N)cc2)CC(=O)N[C@@H](Cc2cc3ccc(Cl)cc3[nH]2)C1=O`: in test [4], the Kd turned out to be 5.5 µM. The IC50 in test [5] turned out to be 0.6 µM.
